US20170037028A1 (BAYER PHARMA AKTIENGESELLSCHAFT, priority 2013, published 2017)

Molecular target: T1, GLUT1 (Homo sapiens, UniProt P11166)
T1 sequence (P11166 1-492): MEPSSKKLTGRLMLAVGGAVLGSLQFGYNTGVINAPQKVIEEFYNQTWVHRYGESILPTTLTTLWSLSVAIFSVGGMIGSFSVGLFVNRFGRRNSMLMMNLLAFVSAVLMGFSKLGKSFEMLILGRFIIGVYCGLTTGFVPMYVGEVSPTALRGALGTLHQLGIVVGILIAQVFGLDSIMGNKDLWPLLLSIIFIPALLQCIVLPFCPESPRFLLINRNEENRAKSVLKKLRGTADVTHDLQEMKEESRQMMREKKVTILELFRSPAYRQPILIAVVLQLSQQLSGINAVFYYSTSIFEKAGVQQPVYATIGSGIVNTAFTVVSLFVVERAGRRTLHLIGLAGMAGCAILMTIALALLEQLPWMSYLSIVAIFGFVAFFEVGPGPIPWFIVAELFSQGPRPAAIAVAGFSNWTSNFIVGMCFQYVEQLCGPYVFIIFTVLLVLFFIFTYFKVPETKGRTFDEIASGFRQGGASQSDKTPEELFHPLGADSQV
Test: Indirect measurement of GLUT1 activity by quantification of intracellular ATP levels (glucose induced ATP increase)
Assay type: cell-based
Parameters: endogenous in cells; host or cells: DLD1 or CHO-K1
Settings: read-out: IC50 regarding glucose induced ATP increase (GLUT1 inhibition)
In short: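 Intracellular ATP was measured by CellTiter-Glo luminescence as an indirect readout of transport: glucose-driven for GLUT1, fructose-driven for GLUT2. DLD1 or CHO-K1 cells were used alongside an oxidative phosphorylation inhibitor. Beforehand, cells were held overnight in glucose-free 1% FCS medium to deplete ATP.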

SMILES	IC50 [nM]
COC(=O)c1ccc(Cn2nc(C)c(NC(=O)c3cc(C(F)(F)F)nc4ccc(Br)cc34)c2C)cc1 [Example 131, methyl 4-{[4-({[6-bromo-2-(trifluoromethyl)quinolin-4-yl]carbonyl}amino)-3,5-dimethyl-1H-pyrazol-1-yl]methyl}benzoate]	8.3
Cc1nn(Cc2ccc(C(=O)O)cc2)c(C)c1NC(=O)c1cc(C(F)(F)F)nc2ccc(Br)cc12 [Example 132, 4-{[4-({[6-bromo-2-(trifluoromethyl)quinolin-4-yl]carbonyl}amino)-3,5-dimethyl-1H-pyrazol-1-yl]methyl}benzoic acid]	5560
Cc1nn(Cc2ccc(C(N)=O)cc2)c(C)c1NC(=O)c1cc(C(F)(F)F)nc2ccc(Br)cc12 [Example 133, 6-bromo-N-[1-(4-carbamoylbenzyl)-3,5-dimethyl-1H-pyrazol-4-yl]-2-(trifluoromethyl)quinoline-4-carboxamide]	5.6
Cc1nn(Cc2ccc(C(=O)Nc3ccccc3)cc2)c(C)c1NC(=O)c1cc(C(F)(F)F)nc2ccc(Br)cc12 [Example 134, 6-bromo-N-{3,5-dimethyl-1-[4-(phenylcarbamoyl)benzyl]-1H-pyrazol-4-yl}-2-(trifluoromethyl)quinoline-4-carboxamide]	6.6
CNC(=O)c1ccc(Cn2nc(C)c(NC(=O)c3cc(C(F)(F)F)nc4ccc(Br)cc34)c2C)cc1 [Example 135, 6-bromo-N-{3,5-dimethyl-1-[4-(methylcarbamoyl)benzyl]-1H-pyrazol-4-yl}-2-(trifluoromethyl)quinoline-4-carboxamide]	8.1
Cc1nn(Cc2ccc(C(=O)NCCN3CCOCC3)cc2)c(C)c1NC(=O)c1cc(C(F)(F)F)nc2ccc(Br)cc12 [Example 136, 6-bromo-N-[3,5-dimethyl-1-(4-{[2-(morpholin-4-yl)ethyl]carbamoyl}benzyl)-1H-pyrazol-4-yl]-2-(trifluoromethyl)quinoline-4-carboxamide]	9
COCCNC(=O)c1ccc(Cn2nc(C)c(NC(=O)c3cc(C(F)(F)F)nc4ccc(Br)cc34)c2C)cc1 [Example 137, 6-bromo-N-(1-{4-[(2-methoxyethyl)carbamoyl]benzyl}-3,5-dimethyl-1H-pyrazol-4-yl)-2-(trifluoromethyl)quinoline-4-carboxamide]	10.7
Cc1nn(Cc2ccc(C(=O)NCc3cccnc3)cc2)c(C)c1NC(=O)c1cc(C(F)(F)F)nc2ccc(Br)cc12 [Example 138, 6-bromo-N-(3,5-dimethyl-1-{4-[(pyridin-3-ylmethyl)carbamoyl]benzyl}-1H-pyrazol-4-yl)-2-(trifluoromethyl)quinoline-4-carboxamide]	18.1
Cc1nn(Cc2ccc(C(=O)NCCO)cc2)c(C)c1NC(=O)c1cc(C(F)(F)F)nc2ccc(Br)cc12 [Example 139, 6-bromo-N-(1-{4-[(2-hydroxyethyl)carbamoyl]benzyl}-3,5-dimethyl-1H-pyrazol-4-yl)-2-(trifluoromethyl)quinoline-4-carboxamide]	31.7
Cc1nn(Cc2ccc(C(=O)NCc3ccccc3)cc2)c(C)c1NC(=O)c1cc(C(F)(F)F)nc2ccc(Br)cc12 [Example 140, N-{1-[4-(benzylcarbamoyl)benzyl]-3,5-dimethyl-1H-pyrazol-4-yl}-6-bromo-2-(trifluoromethyl)quinoline-4-carboxamide]	50
Cc1nn(Cc2ccc(C(=O)N3CCOCC3)cc2)c(C)c1NC(=O)c1cc(C(F)(F)F)nc2ccc(Br)cc12 [Example 141, 6-bromo-N-{3,5-dimethyl-1-[4-(morpholin-4-ylcarbonyl)benzyl]-1H-pyrazol-4-yl}-2-(trifluoromethyl)quinoline-4-carboxamide]	69.4
Cc1nn(Cc2ccc(C(=O)NCCN(C)C)cc2)c(C)c1NC(=O)c1cc(C(F)(F)F)nc2ccc(Br)cc12 [Example 142, 6-bromo-N-[1-(4-{[2-(dimethylamino)ethyl]carbamoyl}benzyl)-3,5-dimethyl-1H-pyrazol-4-yl]-2-(trifluoromethyl)quinoline-4-carboxamide]	70.7
Cc1nn(Cc2ccc(C(=O)N(C)C)cc2)c(C)c1NC(=O)c1cc(C(F)(F)F)nc2ccc(Br)cc12 [Example 143, 6-bromo-N-{1-[4-(dimethylcarbamoyl)benzyl]-3,5-dimethyl-1H-pyrazol-4-yl}-2-(trifluoromethyl)quinoline-4-carboxamide]	85.3
Cc1nn(Cc2ccc(F)c(F)c2)c(C)c1NC(=O)c1cc(C2CCC2)nc2ccc(Br)cc12 [Example 144, 6-bromo-2-cyclobutyl-N-[1-(3,4-difluorobenzyl)-3,5-dimethyl-1H-pyrazol-4-yl]quinoline-4-carboxamide]	5.7
Cc1nn(Cc2ccc(F)c(F)c2)c(C)c1NC(=O)c1cc(C2CC2)nc2ccc(Cl)cc12 [Example 145, 6-chloro-2-cyclopropyl-N-[1-(3,4-difluorobenzyl)-3,5-dimethyl-1H-pyrazol-4-yl]quinoline-4-carboxamide]	6.1
Cc1nn(Cc2ccc(F)cc2)c(C)c1NC(=O)c1cc(C2CCC2)nc2ccc(Br)cc12 [Example 146, 6-bromo-2-cyclobutyl-N-[1-(4-fluorobenzyl)-3,5-dimethyl-1H-pyrazol-4-yl]quinoline-4-carboxamide]	7.9
Cc1nn(Cc2ccc(C#N)nc2)c(C)c1NC(=O)c1cc(C(F)(F)F)nc2ccc(Br)cc12 [Example 147, 6-bromo-N-{1-[(6-cyanopyridin-3-yl)methyl]-3,5-dimethyl-1H-pyrazol-4-yl}-2-(trifluoromethyl)quinoline-4-carboxamide]	8.2
Cc1nn(Cc2ccc(Cl)cc2)c(C)c1NC(=O)c1cc(C(F)(F)F)nc2ccc(Br)cc12 [Example 148, 6-bromo-N-[1-(4-chlorobenzyl)-3,5-dimethyl-1H-pyrazol-4-yl]-2-(trifluoromethyl)quinoline-4-carboxamide]	11.4
COC(=O)c1ccc2nc(C(F)(F)F)cc(C(=O)Nc3c(C)nn(Cc4ccc(F)cc4)c3C)c2c1 [Example 149, methyl 4-{[1-(4-fluorobenzyl)-3,5-dimethyl-1H-pyrazol-4-yl]carbamoyl}-2-(trifluoromethyl)quinoline-6-carboxylate]	11.7
COC(=O)Cc1ccc(Cn2nc(C)c(NC(=O)c3cc(C(F)(F)F)nc4ccc(Br)cc34)c2C)cc1 [Example 150, methyl (4-{[4-({[6-bromo-2-(trifluoromethyl)quinolin-4-yl]carbonyl}amino)-3,5-dimethyl-1H-pyrazol-1-yl]methyl}phenyl)acetate]	11.7
Cc1nn(Cc2ccc(CC(=O)O)cc2)c(C)c1NC(=O)c1cc(C(F)(F)F)nc2ccc(Br)cc12 [Example 151, (4-{[4-({[6-bromo-2-(trifluoromethyl)quinolin-4-yl]carbonyl}amino)-3,5-dimethyl-1H-pyrazol-1-yl]methyl}phenyl)acetic acid]	1280
Cc1nn(Cc2ccc(CC(N)=O)cc2)c(C)c1NC(=O)c1cc(C(F)(F)F)nc2ccc(Br)cc12 [Example 152, N-{1-[4-(2-amino-2-oxoethyl)benzyl]-3,5-dimethyl-1H-pyrazol-4-yl}-6-bromo-2-(trifluoromethyl)quinoline-4-carboxamide]	58.3
CNC(=O)Cc1ccc(Cn2nc(C)c(NC(=O)c3cc(C(F)(F)F)nc4ccc(Br)cc34)c2C)cc1 [Example 153, 6-bromo-N-(3,5-dimethyl-1-{4-[2-(methylamino)-2-oxoethyl]benzyl}-1H-pyrazol-4-yl)-2-(trifluoromethyl)quinoline-4-carboxamide]	95.8
Cc1nn(Cc2ccc(CC(=O)NCc3ccccc3)cc2)c(C)c1NC(=O)c1cc(C(F)(F)F)nc2ccc(Br)cc12 [Example 154, N-(1-{4-[2-(benzylamino)-2-oxoethyl]benzyl}-3,5-dimethyl-1H-pyrazol-4-yl)-6-bromo-2-(trifluoromethyl)quinoline-4-carboxamide]	196
Cc1nn(Cc2ccc(CC(=O)Nc3ccccc3)cc2)c(C)c1NC(=O)c1cc(C(F)(F)F)nc2ccc(Br)cc12 [Example 155, 6-bromo-N-(3,5-dimethyl-1-{4-[2-oxo-2-(phenylamino)ethyl]benzyl}-1H-pyrazol-4-yl)-2-(trifluoromethyl)quinoline-4-carboxamide]	312
Cc1nn(Cc2ccc(CC(=O)N(C)C)cc2)c(C)c1NC(=O)c1cc(C(F)(F)F)nc2ccc(Br)cc12 [Example 156, 6-bromo-N-(1-{4-[2-(dimethylamino)-2-oxoethyl]benzyl}-3,5-dimethyl-1H-pyrazol-4-yl)-2-(trifluoromethyl)quinoline-4-carboxamide]	354
Cc1nn(Cc2ccc(CC(=O)NCc3cccnc3)cc2)c(C)c1NC(=O)c1cc(C(F)(F)F)nc2ccc(Br)cc12 [Example 157, 6-bromo-N-[3,5-dimethyl-1-(4-{2-oxo-2-[(pyridin-3-ylmethyl)amino]ethyl}benzyl)-1H-pyrazol-4-yl]-2-(trifluoromethyl)quinoline-4-carboxamide]	437
Cc1nn(Cc2ccc(CC(=O)N3CCOCC3)cc2)c(C)c1NC(=O)c1cc(C(F)(F)F)nc2ccc(Br)cc12 [Example 158, 6-bromo-N-(3,5-dimethyl-1-{4-[2-(morpholin-4-yl)-2-oxoethyl]benzyl}-1H-pyrazol-4-yl)-2-(trifluoromethyl)quinoline-4-carboxamide]	521
